Entries after “also recorded” stand apart in the source; their conditions may differ.
Experiments:
NK1 receptor = target: T1, NK1 receptor (Homo sapiens, UniProt P25103); experiment: NK1 receptor mediated intracellular [Ca2+] mobilization in U251 MG cells using FLIPR; assay type: cell-based; conditions: antagonist potency against Substance P (EC80), normalized to 100 nM Aprepitant, read-out: U251MG (FLIPR pIC50) (converted)
T1 construct: Measurement of NK1 Receptor Mediated Intracellular [Ca^2+]; Mobilization in U251 MG Cells Using FLIPR; endogenous in cells; host or cells: U251 MG cells
In short: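 Fluo-4-loaded U251 MG cells were preincubated with compound (0.5% DMSO final), with any agonist effect read for 5 min, then 10 min more at 37 °C before Substance P at EC80. Peak FLIPR fluorescence change was read, and IC50 came from a four-parameter fit as the midpoint between fitted top and bottom.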

[1] = Hepatic intrinsic clearance following incubation in human liver microsomes; assay type: in vitro ADME; conditions: NADPH regenerating system, 0-30 min, 37 °C
In short: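 Compounds (from 50 µM working solution) are incubated with human liver microsomes diluted to 0.55 mg/mL in phosphate pH 7.4, with NADPH regeneration at 37 °C and sampling at 0–30 min. LC-MS/MS parent depletion gives kobs, scaled to mL/min/g liver. Eh uses 25.7 g liver/kg and 20.7 mL/min/kg blood flow.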

NK-1 receptor = target: T2, NK-1 receptor (Meriones unguiculatus, UniProt Q5DUB1); experiment: Gerbil scratching model (scratching induced by NK-1 agonist GR73632); assay type: in vivo, Mongolian gerbil; conditions: for attenuation of scratching induced in gerbils by the NK-1 selective agonist GR73632: topical application 1% w/v (20 μL) 20 min before i.d. GR73632 100 nmol/100 μL, male Mongolian gerbils
T2 construct: animals (male Mongolian gerbils) were shaved on the rostral part of the back; from tissue; host or cells: living male Mongolian gerbils (skin, topical application; in vivo)
Procedure: The gerbil was selected for this study as this species shares higher homology to the human in terms of NK-1 receptor pharmacology compared to other laboratory rodents.
Each test compound was tested on 11 or 12 animals. On the day of the test, the gerbils (four animals simultaneously) were put into a Plexiglas cage (42×42×35 cm) composed of four cells (20.5×20.5×35 cm) for 10 minutes of habituation. After this period, the test compound (1% w/v in acetone and transcutol 9:1) was topically applied on the shaven area in a volume of 20 μL. Topical application was performed using a Hamilton syringe (25 μL) and a square stencil of impermeable paper (1.5×1.5 cm) to allow application over a defined skin area (2.25 cm2). […] I.d. injection was made with a Hamilton syringe (250 μL) connected to a 27 gauge needle. Immediately after injection, animals were placed back into the same cell of the Plexiglas cage they were previously habituated in and their behaviour was recorded on video remotely for 30 minutes. The experimenter remained out of the observation room in order to minimize disturbance to the animals. The video was subsequently analysed to assess scratching behaviour. Scratching of the injection site by the hind paws was counted while scratching of other sites such as ears and snout were disregarded. Scratching episodes were measured over 10-minutes time intervals, for a total of 30 minutes.
Results were expressed as mean value±SEM. Statistical analysis was performed by a one-way ANOVA followed by LSD post hoc test with the exception of time-course analysis for a repeated-measure ANOVA followed by LSD post hoc test was performed.

T1 sequence (P25103 whole entry): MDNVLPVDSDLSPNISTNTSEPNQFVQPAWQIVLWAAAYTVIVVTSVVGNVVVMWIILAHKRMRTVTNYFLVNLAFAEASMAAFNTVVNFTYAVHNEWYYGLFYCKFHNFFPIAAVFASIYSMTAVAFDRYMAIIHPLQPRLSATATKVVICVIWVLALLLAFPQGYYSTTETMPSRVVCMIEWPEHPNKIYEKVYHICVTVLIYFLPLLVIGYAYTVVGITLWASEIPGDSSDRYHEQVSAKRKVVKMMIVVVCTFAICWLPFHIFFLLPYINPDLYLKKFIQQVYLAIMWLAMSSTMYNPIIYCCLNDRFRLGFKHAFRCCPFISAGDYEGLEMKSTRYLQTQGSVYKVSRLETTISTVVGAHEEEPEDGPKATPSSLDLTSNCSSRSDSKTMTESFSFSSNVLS
T2 sequence (Q5DUB1 whole entry): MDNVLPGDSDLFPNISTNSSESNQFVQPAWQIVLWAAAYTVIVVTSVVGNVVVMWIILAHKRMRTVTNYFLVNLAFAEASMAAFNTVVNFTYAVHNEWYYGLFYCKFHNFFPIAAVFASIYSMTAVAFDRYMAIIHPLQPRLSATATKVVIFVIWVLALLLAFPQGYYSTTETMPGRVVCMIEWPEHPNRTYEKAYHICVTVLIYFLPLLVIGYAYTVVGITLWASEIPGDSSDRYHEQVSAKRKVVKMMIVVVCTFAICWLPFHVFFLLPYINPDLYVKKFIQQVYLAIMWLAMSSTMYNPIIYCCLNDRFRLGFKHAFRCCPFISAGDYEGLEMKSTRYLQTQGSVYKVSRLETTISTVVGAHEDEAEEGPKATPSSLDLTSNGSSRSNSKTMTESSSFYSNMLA

| Compound | IC50 (NK1 receptor) [nM] | Human in vitro Clint (mL/min/g liver) [1] [mL/min/g liver] | attenuation of scratching induced in gerbils by the NK-1 selective agonist GR73632 (NK-1 receptor) | induction of scratching (number of scratches) (NK-1 receptor; intradermal injection 100 nmol/100 μL, 30 min time course, repeated-measure ANOVA, gerbil) |
| --- | --- | --- | --- | --- |
| Cc1ccccc1[C@H]1[C@@H]2CC(CCO)(CCO)C(=O)N2CCN1C(=O)N(C)[C@H](C)c1cc(C(C)C)cc(C(F)(F)F)c1 [Compound 113, (1S,8aS)-7,7-bis(2-hydroxyethyl)-N-((R)-1-(3-isopropyl-5-(trifluoromethyl)phenyl)ethyl)-N-methyl-6-oxo-1-o-tolylhexahydropyrrolo[1,2-a]pyrazine-2(1H)-carboxamide] | 0.0316 | 56 | – | – |
| Cc1cc([C@@H](C)N(C)C(=O)N2CCN3C(=O)C(CCO)(CCO)C[C@H]3[C@@H]2c2ccccc2C)cc(C(F)(F)F)c1 [Compound 85, (1S,8aS)-7,7-bis(2-hydroxyethyl)-N-methyl-N-((R)-1-(3-methyl-5-(trifluoromethyl)phenyl)ethyl)-6-oxo-1-o-tolylhexahydropyrrolo[1,2-a]pyrazine-2(1H)-carboxamide] | 0.0794 | 17 | – | – |
| Cc1cc([C@@H](CO)N(C)C(=O)N2CCN3C(=O)C(CCO)(CCO)C[C@H]3[C@@H]2c2ccccc2C)cc(C(F)(F)F)c1 [Compound 111, (1S,8aS)-N-((S)-2-hydroxy-1-(3-methyl-5-(trifluoromethyl)phenyl)ethyl)-7,7-bis(2-hydroxyethyl)-N-methyl-6-oxo-1-o-tolylhexahydropyrrolo[1,2-a]pyrazine-2(1H)-carboxamide] | 0.0617 | 3.7 | – | – |
| Cc1ccccc1[C@H]1[C@@H]2CC(CCO)(CCO)C(=O)N2CCN1C(=O)N(C)[C@H](CO)c1cc(F)cc(C(F)(F)F)c1 [Compound 94, (1S,8aS)-N-((S)-1-(3-fluoro-5-(trifluoromethyl)phenyl)-2-hydroxyethyl)-7,7-bis(2-hydroxyethyl)-N-methyl-6-oxo-1-o-tolylhexahydropyrrolo[1,2-a]pyrazine-2(1H)-carboxamide] | 0.0501 | 3.4 | – | – |
| CCc1cc([C@@H](C)N(C)C(=O)N2CCN3C(=O)CC[C@H]3[C@@H]2c2ccccc2C)cc(C(F)(F)F)c1 [Compound 109, (1S,8aS)-N-((R)-1-(3-ethyl-5-(trifluoromethyl)phenyl)ethyl)-N-methyl-6-oxo-1-o-tolylhexahydropyrrolo[1,2-a]pyrazine-2(1H)-carboxamide] | 0.1 | 13 | – | – |
| Cc1ccccc1[C@H]1[C@@H]2CC(CCO)(CCO)C(=O)N2CCN1C(=O)N(C)[C@H](CO)c1cccc(C(F)(F)F)c1 [Compound 96, (1S,8aS)-N-((S)-2-hydroxy-1-(3-(trifluoromethyl)phenyl)ethyl)-7,7-bis(2-hydroxyethyl)-N-methyl-6-oxo-1-o-tolylhexahydropyrrolo[1,2-a]pyrazine-2(1H)-carboxamide] | 0.0794 | 4.8 | – | – |
| Cc1ccccc1C1C2CC(CCO)(CCO)C(=O)N2CCN1C(=O)N(C)[C@H](C)c1cc(C(F)(F)F)cc(C(F)(F)F)c1 (single isomer, unassigned) [Compound 54] | 0.12 | 9.5 | able to attenuate the scratching | – |
| Cc1cc([C@H](C)N(C)C(=O)N2CCN3C(=O)C(CCO)(CCO)C[C@H]3[C@@H]2c2ccccc2C)cc(C(F)(F)F)c1 [Compound 84, (1S,8aS)-7,7-bis(2-hydroxyethyl)-N-methyl-N-((S)-1-(3-methyl-5-(trifluoromethyl)phenyl)ethyl)-6-oxo-1-o-tolylhexahydropyrrolo[1,2-a]pyrazine-2(1H)-carboxamide] | 0.0631 | 8.5 | – | – |
| 5-Aminopentanoyl-L-phenylalanyl-L-phenylalanyl-L-prolyl-L-(N-methyl)leucyl-L-methioninamide [GR73632, reference compound] | – | – | – | induced an increase in the number of scratches; also recorded: induced an increase of scratching |
| Cc1ccccc1C1C2CC(CCO)(CCO)CN2CCN1C(=O)N(C)[C@H](C)c1cc(C(F)(F)F)cc(C(F)(F)F)c1 (single isomer, unassigned) [Compound 60] | 0.339 | 6.1 | able to attenuate the scratching | – |

Continued, in another order:

| IC50 (NK1 receptor) [nM] | Human in vitro Clint (mL/min/g liver) [1] [mL/min/g liver] | attenuation of scratching induced in gerbils by the NK-1 selective agonist GR73632 (NK-1 receptor) | Compound | induction of scratching (number of scratches) (NK-1 receptor; intradermal injection 100 nmol/100 μL, 30 min time course, repeated-measure ANOVA, gerbil) |
| --- | --- | --- | --- | --- |
| 0.0692 | 2.6 | able to attenuate the scratching | Cc1ccccc1C1C2CC(CCO)(CCO)C(=O)N2CCN1C(=O)N(C)Cc1cc(C(F)(F)F)cc(C(F)(F)F)c1 (single isomer, unassigned) [Compound 44, N-{[3,5-bis(trifluoromethyl)phenyl]methyl}-7,7-bis(2-hydroxyethyl)-N-methyl-1-(2-methylphenyl)-6-oxo-octahydropyrrolo[1,2-a]piperazine-2-carboxamide] | – |
| 0.0347 | 4.5 | able to attenuate the scratching | Cc1ccccc1[C@H]1[C@@H]2CCC(=O)N2CCN1C(=O)N(C)[C@H](C)c1cc(C(F)(F)F)cc(C(F)(F)F)c1 (single isomer, unassigned) [Compound 9] | – |
| 0.195 | 3.3 | not able to attenuate the scratching | Cc1ccccc1C1C2CC(CN3CCOCC3)C(=O)N2CCN1C(=O)N(C)Cc1cc(C(F)(F)F)cc(C(F)(F)F)c1 (single isomer, unassigned) [Compound 38] | – |
| 0.0933 | 0.4 | – | Cc1ccccc1C1C2CC3(CCN(C)CC3)C(=O)N2CCN1C(=O)N(C)Cc1cc(C(F)(F)F)cc(C(F)(F)F)c1 (single isomer, unassigned) [Compound 47, N-{[3,5-bis(trifluoromethyl)phenyl]methyl}-N,1-dimethyl-4′-(2-methylphenyl)-1′-oxo-hexahydro-1′H-spiro[piperidine-4,2′-pyrrolo[1,2-a]piperazine]-5′-carboxamide] | – |
| 0.661 | 1.0 | – | Cc1ccccc1C1C2CC(C)(C(=O)N(C)C)C(=O)N2CCN1C(=O)N(C)Cc1cc(C(F)(F)F)cc(C(F)(F)F)c1 (single isomer, unassigned) [Compound 26, 2-N-{[3,5-bis(trifluoromethyl)phenyl]methyl}-2-N,7-N,7-N,7-tetramethyl-1-(2-methylphenyl)-6-oxo-octahydropyrrolo[1,2-a]piperazine-2,7-dicarboxamide] | – |
| 0.151 | 2.4 | not able to attenuate the scratching | Cc1ccccc1C1C2CC(CO)C(=O)N2CCN1C(=O)N(C)[C@H](C)c1cc(C(F)(F)F)cc(C(F)(F)F)c1 (single isomer, unassigned) [Compound 55] | – |
| 0.398 | 6.4 | – | Cc1ccccc1C1C2CC(CN3CCOCC3)C(=O)N2CCN1C(=O)N(C)Cc1cc(C(F)(F)F)cc(C(F)(F)F)c1 (single isomer, unassigned) [Compound 29, N-{[3,5-bis(trifluoromethyl)phenyl]methyl}-N-methyl-1-(2-methylphenyl)-7-(morpholin-4-ylmethyl)-6-oxo-octahydropyrrolo[1,2-a]piperazine-2-carboxamide] | – |

Source: patent publication US9181259B2 (LEO PHARMA A/S, priority 2012, dated 2015)
